Data as given in US6518423B1, “Benzopiperidine derivatives” (Eisai Co., Ltd., priority 1996, dated 2003).

SMILES	melting point
O=S(=O)(NCCc1cn(Cc2ccc3c(c2)Nc2nccnc2S3)cn1)c1ccccc1	127 to 130 °C
NS(=O)(=O)NCCc1cn(Cc2ccc3c(c2)Nc2nccnc2S3)cn1	187 to 189 °C
O=C(O)CC1CC2CCC(C1)N2Cc1ccc2c(c1)Nc1nccnc1S2 (stereo not drawn)	155 to 158 °C
CN(CCCC(C)(C)C(=O)O)Cc1ccc2c(c1)Nc1nccnc1S2	200 to 202 °C
Cl.O=C(O)Cc1ccc(NCc2ccc3c(c2)Nc2nccnc2S3)cc1	252 to 256 °C
O=c1[nH]cnc2c1ncn2Cc1ccc2c(c1)Nc1nccnc1S2	> 275 °C
c1ccc(C2CCN(c3ncnc4c3ncn4Cc3ccc4c(c3)Nc3nccnc3S4)CC2)cc1	239 to 241 °C
N=C(Cc1ccc2c(c1)Nc1nccnc1S2)N1CCC(O)CC1	265 to 267 °C
CN(C)S(=O)(=O)NC1CCN(Cc2ccc3c(c2)Sc2nccnc2N3)CC1	172 to 173 °C
O=C1CC2(CCN(Cc3ccc4c(c3)Nc3nccnc3S4)CC2)CO1	180 to 182 °C
c1cnc2c(n1)Nc1cc(CN3CCc4ccoc4C3)ccc1S2	168 to 172 °C
CC(=NC#N)N1CCN(Cc2ccc3c(c2)Nc2nccnc2S3)CC1	234 °C (dec.)
C/C(=C\C(=O)O)C1CCN(Cc2ccc3c(c2)Nc2nccnc2S3)CC1	207 to 209 °C
CC(C(=O)O)C1CCN(Cc2ccc3c(c2)Nc2nccnc2S3)CC1 (stereo not drawn)	240 to 243 °C
CC(CCC1CCN(CC(O)c2ccc3c(c2)Nc2nccnc2S3)CC1)C(=O)O (stereo not drawn)	239 to 242 °C
O=C(O)C(=O)NC1CCN(Cc2ccc3c(c2)Nc2nccnc2S3)CC1	222 to 226 °C
C/C(=C\CC1CCN(Cc2ccc3c(c2)Nc2nccnc2S3)CC1)C(=O)O	91 to 93 °C
O=C(O)CNC(=O)NC1CCN(Cc2ccc3c(c2)Nc2nccnc2S3)CC1	207 to 210 °C
CC(CCC1CCN(C(=O)Cc2ccc3c(c2)Nc2nccnc2S3)CC1)C(=O)O (stereo not drawn)	84 to 89 °C
OCc1cc(NCc2ccc3c(c2)Nc2nccnc2S3)ccn1	156 to 160 °C
COc1ccc(NCc2ccc3c(c2)Nc2nccnc2S3)cn1	168 to 172 °C
c1ccc(Oc2ccc(NCc3ccc4c(c3)Nc3nccnc3S4)cn2)cc1	162 to 165 °C
c1ccc(Cc2ccc(NCc3ccc4c(c3)Nc3nccnc3S4)cn2)cc1	162 to 164 °C

More lines, now with the values ahead:

melting point	SMILES
218 to 219 °C	O=Cc1nccn1Cc1ccc2c(c1)Nc1nccnc1S2
> 298 °C	Cc1c(C(N)=O)ncn1Cc1ccc2c(c1)Nc1nccnc1S2
160 to 161 °C	c1csc(Cc2ccc3c(c2)Nc2nccnc2S3)n1
> 275 °C	C(=C\c1ccc2c(c1)Nc1nccnc1S2)/c1ccncc1
221 to 223 °C	OC(c1ccc(Br)nc1)c1ccc2c(c1)Nc1nccnc1S2 (stereo not drawn)
157 to 159 °C	FC(c1cccnc1)c1ccc2c(c1)Nc1nccnc1S2 (stereo not drawn)
183 to 186 °C	c1ccc(NCc2ccc3c(c2)Nc2nccnc2S3)cc1
172 to 174 °C	CN(Cc1ccc2c(c1)Nc1nccnc1S2)c1ccccc1
158 to 161 °C	CN(C)C(=O)/N=C(\N)Cc1ccc2c(c1)Nc1nccnc1S2
> 280 °C	Cl.c1cnc2c(n1)Nc1cc(CC3=NCCCN3)ccc1S2
172 to 174 °C	CONC(Cc1ccc2c(c1)Nc1nccnc1S2)=NC#N
215 to 217 °C	c1ccc2c(c1)Nc1nccnc1N2
191 to 194 °C	OCC(O)CN1c2ccccc2Nc2nccnc21 (stereo not drawn)
197 to 198 °C	COCOc1ccc2c(c1)Nc1nccnc1N2C
169 to 172 °C	COCc1ccc2c(c1)Nc1nccnc1N2C
138 to 139 °C	OCCCCN1c2ccccc2Nc2nccnc21
117 to 122 °C	CN1c2ccc(CN)cc2Nc2nccnc21
231 to 233 °C	NC(=O)NCCN1c2ccccc2Nc2nccnc21
188 to 189 °C	CN(C)CC#Cc1ccc2c(c1)Nc1nccnc1N2C
